These results are taken from paper PMC12344774, “Ferrocenyl Quinoline-Benzimidazole Hybrids: A Multistage Strategy to Combat Drug-Resistant Malaria” (Inorganic Chemistry, 2025).

The term IC50 denotes the concentration that inhibits the measured activity by half.

Series [1] relates to Immature gametocytes (>90% stage II/III). Kind of series: microbe, parasite or virus in culture. Type of series: cell-based, Plasmodium falciparum. The following applies: 48 h drug pressure; for % Inhibition, immature gametocytes: maximum inhibition at 10 μM. As for the experimental part:
(§1) Compounds are diluted 3-fold in at least a 9-point serial dilution series starting at 20 μM, with a nonlethal DMSO concentration of <0.1% maintained. Luciferase activity was determined in 30 μL parasite lysates by adding 30 μL luciferin substrate (Promega Luciferase Assay System) at room temperature and detection of resultant bioluminescence at an integration constant of 10 s with the GloMax-Multi + Detection System with Instinct Software. Methylene blue (5 μM) and the clinical antimalarial candidate MMV390048 (5 μM) were used as controls. IC50 values were determined in GraphPad Prism using a nonlinear regression fit with variable slope (4-parameter) on the dose–response data.
(§2) Assay quality parameters are evaluated for each assay, including Z′-factors (data quality compared to reproducibility using signal, noise, and background parameters; accepted metric >0.6), regression (accepted r 2 > 0.9); >80% viable parasites (top plateau); <20% killed parasites (bottom plateau), hill slope ∼1.

For series [2], the system named is Mature gametocytes (>95% stage V). As to the kind of experiment: microbe, parasite or virus in culture. Type of series: cell-based, Plasmodium falciparum. Conditions: 48 h drug pressure; for % Inhibition, mature gametocytes: maximum inhibition at 10 μM. As for the experimental part:
as §1, §2

Series [3] is described as follows: Cyclic voltammetry of the ferrocene/ferrocenium couple. In kind it is physicochemical. The following applies: for Reversibility of the ferrocene/ferrocenium couple: DCM/0.1 M TBAP system. On the procedure:
It has been proposed that the oxidation of ferrocene (Fe(C5H5)2) to the ferrocenium cation (Fe(C5H5)2 ^+) is a reversible one-electron transfer process. […] This prompted the investigation into the electrochemical properties of the Fe(C5H5)2/Fe(C5H5)2 ^+ couple in complexes C1–C5, using cyclic voltammetry. FQ was used as the reference, as it is considered the benchmark for all newly developed ferrocenyl-based antiplasmodials.
Nuclear magnetic resonance (NMR) spectra were recorded on a Bruker XR600 MHz spectrometer (^1H at 599.95 MHz and ^13C{^1H} at 151.0 MHz), a Bruker […] (^1H at 400.22 MHz and ^13C{^1H} at 100.65 MHz), or a Varian Mercury 300 (^1H at 300.08 MHz) spectrometer. These were equipped with a Bruker Biospin GmbH casing and sample injector at 30 °C and tetramethylsilane (TMS) was used as the internal standard. Coupling constants are reported in Hz and chemical shifts are reported in ppm relative to residual solvent signals. Infrared (IR) spectroscopy was performed on a PerkinElmer Spectrum 100 FT-IR spectrometer, using attenuated total reflectance (ATR), with vibrations measured in units of cm^–1. Cyclic voltammetric measurements were carried out at ambient temperature under an inert argon atmosphere using a three-electrode system on a BASi Epsilon Eclipse potentiostat/galvanostat electrochemical workstation. The C-3 cell stand, equipped with a glassy carbon working electrode, Ag/AgCl (saturated NaCl) reference electrode, and a Pt wire auxiliary electrode were used to carry out electrochemical measurements. All experiments were carried out in anhydrous dichloromethane containing 0.10 M tetra-n-butylammonium perchlorate (TBAP) as the supporting electrolyte.

The subject of the next series is PfNF54. Kind of series: In vitro ABS antiplasmodial activity, pLDH assay, drug-sensitive NF54. In kind it is cell-based, Plasmodium falciparum. The following applies: drug-sensitive NF54, ABS, pLDH, 48 h incubation; read-out: PfNF54 IC50 ± SEM. From the text: (§3) This side chain is also present in the well-known antiplasmodial agent, FQ.
(§4) Test samples were screened in technical duplicate or triplicate, for three or four biological replicates, for their in vitro blood stage antiplasmodial activity against both the drug-sensitive (NF54) and multidrug-resistant (K1) strains of . Continuous in vitro cultures of asexual erythrocyte stages of were maintained using a modified method of Trager and Jensen. A quantitative assessment of the in vitro antiplasmodial activity was determined via the parasite lactate dehydrogenase (pLDH) assay, using a modified method described by Makler and Hinrichs.
(§5) The test samples were prepared to a 20 mg/mL stock solution in 100% DMSO. Stock solutions were stored at −20 °C. Further dilutions were prepared in complete medium on the day of the experiment. […] Chloroquine diphosphate (CQDP) was used as the reference drug in all experiments. Test samples were tested at a starting concentration of either 100 μg/mL, 50 μg/mL, 10 μg/mL, or 1 μg/mL, which was then serially diluted 2-fold, in complete medium, to give 10 concentrations. The same dilution technique was used for all samples. […] The IC50 values were obtained from full dose–response curves, using a nonlinear dose–response curve fitting analysis, via GraphPad Prism v.5 software.

The test system of the next series is β-hematin formation. As to the kind of experiment: NP-40 detergent-mediated β-hematin formation inhibition assay (cell-free). In kind it is biochemical. Conditions: NP-40, pH 4.8, 5 h, 37 °C, read-out: β-hematin formation inhibition IC50 ± SEM. From the text:
The ability of a compound to inhibit Hz formation can be predicted using the biomimetic cell-free NP40 detergent-mediated β-hematin formation inhibition assay. , This assay mimics the conditions in the acidic DV of the parasite and relies on the binding of pyridine to uncrystallized free heme to detect the inhibition of β-hematin formation using UV–vis spectroscopy (with absorbance measured at 405 nm). , Consequently, the ability of the ferrocenyl quinoline-benzimidazole hybrids (C1–C5) to inhibit β-hematin (synthetic Hz) formation was investigated as a potential mechanism of antiplasmodial action.
The β-hematin formation inhibition assay was modified from the method reported by Sandlin et al. , Stock solutions of the respective test compounds were prepared to 10 mM, in 100% DMSO, with the exception of CQ (used in the salt form, CQDP), which was prepared in Milli-Q water. […] NP-40 is a detergent used to mediate the formation of β-hematin. The solution in column 12 was then serially diluted 2-fold, through to column 2, to give a total of 11 concentrations. Column 1 contained 0 μM of the test compound and thus served as a blank. […] A 178.8 μL aliquot of this hematin suspension was added to 20.0 mL of a 2 M acetate buffer (pH = 4.8) and 100 μL of this solution added to each well. The plates were then covered and incubated for 5 h, at 37 °C. The assay was analyzed using the pyridine-ferrochrome method developed by Ncokazi and Egan. A solution containing water/acetone/2 M HEPES buffer (pH 7.4)/pyridine, in a v/v ratio of 2/2/1/5, was prepared and 32 μL was added to all wells, followed by 60 μL of acetone. The absorbance values were then measured at 405 nm, the results plotted using GraphPad Prism (v5), and the IC50 values obtained using a sigmoidal dose–response curve fitting analysis.

The test system of another series is PfK1. Kind of series: microbe, parasite or virus in culture. The following applies: MDR K1, ABS, pLDH, 48 h incubation; read-out: PfK1 IC50 ± SEM. In kind it is cell-based, Plasmodium falciparum.
Source text: as §3, §4, §5

Where [4] appears, read: scan rate 100 mV/s, CH2Cl2, 0.1 M TBAP.
[5] abbreviates: vs Ag/AgCl, scan rate 100 mV/s, CH2Cl2, 0.1 M TBAP.

Values joined by “and” are separate entries in the source; they are usually repeats but may differ in a detail not shown here. Identical values can stand only once.

Regarding `Cc1ccc2c(c1)nc(-[c-]1cccc1)n2CCCNc1ccnc2cc(Cl)ccc12.[Fe+2].c1cc[cH-]c1` [Complex C1, 7-chloro-N-(3-(5-(methyl)-2-ferrocenyl-1H-benzo[d]imidazole-1-yl)propyl)quinolin-4-amine], the “% Inhibition, immature gametocytes” value in series [1] came to 3%. In addition, in series [2], the “% Inhibition, mature gametocytes” value came out at 7%. Besides, the “Reversibility of the ferrocene/ferrocenium couple” value in series [3] is “chemically and electrochemically reversible”. In series [3] (setting [4]), this molecule yielded an Ipc/Ipa of 1.04 and a ΔE of 0.127 V. In series [3] (setting [5]), the “Anodic peak potential Epa” value was determined as 0.638 V, the “Cathodic peak potential Epc” value is on record as 0.510 V and the “Half-wave potential E1/2” value came out at 0.574 V. The IC50 with PfNF54 turned out to be 9.91 ± 0.71 µM. Besides, the IC50 in the series with β-hematin formation came to 7.26 µM. Moreover, the IC50 in the series on PfK1 amounted to 6.29 ± 0.51 µM.
`Cc1ccc2c(c1)nc(-[c-]1cccc1CN(C)C)n2CCCNc1ccnc2cc(Cl)ccc12.[Fe+2].c1cc[cH-]c1` (centres unmarked) [Complex C3, 7-Chloro-N-(3-(5-methyl-2-(2-N,N-dimethylaminomethyl)ferrocenyl-1H-benzo[d]-imidazole-1-yl)propyl) Quinoline-4-amine]: the concentration for half-maximal inhibition (IC50) in series [1] (read-out: IC50 ± S.E., immature gametocytes) is 2.35 µM; in series [2] (read-out: IC50 ± S.E., mature gametocytes), 7.27 µM; with PfNF54 it was 0.025 ± 0.001 µM; in the series with β-hematin formation, 5.42 µM; in the series with PfK1, 0.11 µM and 0.113 µM. The “% Inhibition, immature gametocytes” value in series [1] was 88%. Besides, the “% Inhibition, mature gametocytes” value in series [2] worked out at 99%. Further, in series [3], the “Reversibility of the ferrocene/ferrocenium couple” value is “chemically and electrochemically irreversible”. In series [3] (setting [5]), the “Anodic peak potential Epa” value amounted to 0.678 V.
